Data as given in patent US4098781A, “Polypeptides with morphine-like activity” (American Home Products Corporation, priority 1977, dated 1978).
Peptide text beside a SMILES is read from it.

Columns and labels:
rats [1] = test: rat-tail flick method, intracerebroventricular injection; assay type: in vivo; parameters: Mean Latency ± SEM Baseline / Mean Latency ± SEM Drug: unit not given here; conditions: lateral ventricle; for Mean Latency ± SEM Baseline / Mean Latency ± SEM Drug: rat-tail flick; for Mean Latency ± SEM Baseline: baseline before drug; for Mean % Change ± SEM: change in latency (drug minus baseline)
Procedure: In this test method, which is a standard test for analgesia, a light beam is focused on the tip of the rat's tail, and the pain threshold of the animal is measured by the latency of the rat to remove his tail from the noxious heat source. When tested by the rat-tail flick method by intracerebroventricular injection, according to the procedure of Belluzzi et al., Nature, 260, 625 (1976), the polypeptides of this invention produced the effects set forth in Table I.
*All drugs were dissolved in […]. of Ringer's solution and injected int
the lateral ventricle through permanently-indwelling cannulae.

rats [2] = conditions: injection in the brain ventricle; cited from earlier work

CN1CC[C@]23c4c5ccc(O)c4O[C@H]2[C@@H](O)C=C[C@H]3[C@H]1C5 [Morphine]
Mean Latency ± SEM Baseline (rats [1]; dose group 10 μg): 3.96 ± 0.42

CSCC[C@H](NC(=O)[C@H](Cc1ccccc1)NC(=O)CNC(=O)CNC(=O)[C@@H](N)Cc1ccc(O)cc1)C(=O)O [Methionine-Enkephalin, H-Tyr-Gly-Gly-Phe-Met-OH, reference compound]
Mean Latency ± SEM Baseline (rats [1]; dose group 100 μg): 3.83 ± 0.14
analgesia (rats [2]): induce a profound analgesia that is fully reversible by naloxone

CSCC[C@H](NC(=O)[C@H](Cc1ccccc1)NC(=O)CNC(=O)CNC(=O)[C@H](Cc1ccc(O)cc1)NC(=O)[C@@H](N)CCCNC(=N)N)C(=O)N[C@H](C(=O)N[C@@H](CO)C(=O)O)[C@@H](C)O [L-Arginyl-L-Tyrosyl-Glycyl-Glycyl-L-Phenylalanyl-L-Methionyl-L-Threonyl-L-Serine] (H-RYGGFMTS-OH)
Mean % Change ± SEM (rats [1]; dose 25 μg, 1 rat): 69.60%
Mean % Change ± SEM (rats [1]; dose 50 μg): 74.13 ± 15.56%
Mean % Change ± SEM (rats [1]; dose 100 μg): 55.13 ± 51.71%
Mean Latency ± SEM Baseline (rats [1]; dose group 25 μg, 1 rat): 3.54
Mean Latency ± SEM Baseline (rats [1]; dose group 50 μg): 3.55 ± 0.13
Mean Latency ± SEM Baseline (rats [1]; dose group 100 μg): 3.43 ± 0.05
Mean Latency ± SEM Drug (rats [1]; dose 25 μg, 1 rat): 6.01
Mean Latency ± SEM Drug (rats [1]; dose 50 μg): 6.18 ± 0.55
Mean Latency ± SEM Drug (rats [1]; dose 100 μg): 5.29 ± 1.10
